Experimental findings from ChEMBL document CHEMBL1140238, “Synthesis of selective SRPK-1 inhibitors: novel tricyclic quinoxaline derivatives” (Bioorg Med Chem Lett, 2005) are described below.

The structures appear in SMILES notation.

Series [1] can be described thus: In vitro percent inhibition of Ribosomal S6 kinase 1 at 10 uM concentration of compound dissolved in 100% DMSO using 5''-[gamma-33P]-triphosphate.
Series [2] concerns the target Platelet-derived growth factor receptor beta (Homo sapiens) (UniProt P09619). In words: In vitro percent inhibition of Platelet-derived growth factor receptor, beta polypeptide at 10 uM concentration of compound dissolved in 100% DMSO using 5''-[gamma-33P]-triphosphate.
Series [3] has as its target T1, Tyrosine-protein kinase transforming protein Abl (Abelson murine leukemia virus) (UniProt P00521).
T1 sequence (whole entry): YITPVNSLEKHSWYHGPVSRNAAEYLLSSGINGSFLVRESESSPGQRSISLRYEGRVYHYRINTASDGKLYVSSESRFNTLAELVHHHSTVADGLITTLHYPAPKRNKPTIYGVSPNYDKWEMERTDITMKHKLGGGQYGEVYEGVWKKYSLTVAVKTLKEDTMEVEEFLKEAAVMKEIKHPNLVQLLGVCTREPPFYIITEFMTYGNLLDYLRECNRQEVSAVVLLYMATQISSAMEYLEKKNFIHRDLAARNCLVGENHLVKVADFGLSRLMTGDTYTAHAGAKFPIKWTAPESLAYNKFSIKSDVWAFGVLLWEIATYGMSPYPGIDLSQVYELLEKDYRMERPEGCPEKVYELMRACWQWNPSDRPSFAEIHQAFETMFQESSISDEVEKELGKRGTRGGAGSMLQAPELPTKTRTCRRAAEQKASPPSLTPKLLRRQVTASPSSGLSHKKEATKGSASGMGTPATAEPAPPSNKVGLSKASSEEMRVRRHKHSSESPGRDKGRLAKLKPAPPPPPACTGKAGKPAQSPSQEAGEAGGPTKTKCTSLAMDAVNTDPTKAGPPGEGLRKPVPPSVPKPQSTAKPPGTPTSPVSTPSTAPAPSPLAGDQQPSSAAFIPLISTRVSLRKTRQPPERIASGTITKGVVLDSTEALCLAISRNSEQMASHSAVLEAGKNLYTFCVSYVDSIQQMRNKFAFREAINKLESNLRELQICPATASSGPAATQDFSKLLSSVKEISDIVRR
The series is described as follows: In vitro percent inhibition of v-Abl tyrosine kinase at 10 uM concentration of compound dissolved in 100% DMSO using 5''-[gamma-33P]-triphosphate.

Series [4] concerns the target Proto-oncogene tyrosine-protein kinase Src (Homo sapiens) (UniProt P12931). The series is described as follows: In vitro percent inhibition of c-Src tyrosine kinase at 10 uM concentration of compound dissolved in 100% DMSO using 5''-[gamma-33P]-triphosphate.
In series [5] the target is Rho-associated protein kinase 2 (Homo sapiens) (UniProt O75116). In words: In vitro percent inhibition of Protein kinase ROCK2 at 10 uM concentration of compound dissolved in 100% DMSO using 5''-[gamma-33P]-triphosphate.
Series [6] has as its target Insulin receptor (Homo sapiens) (UniProt P06213). The series is described as follows: In vitro percent inhibition of Insulin receptor at 10 uM concentration of compound dissolved in 100% DMSO using 5''-[gamma-33P]-triphosphate.
The nature of series [7]: Partition coefficient (logP). The class given is physicochemical. The note with it: octanol/water.
The target of series [8] is Epidermal growth factor receptor (Homo sapiens) (UniProt P00533). The conditions noted are these: 10 uM.
The target of series [9] is Mitogen-activated protein kinase 8 (Homo sapiens) (UniProt P45983). In words: In vitro percent inhibition of c-Jun N-terminal kinase 1-alpha 1 at 10 uM concentration of compound dissolved in 100% DMSO using 5''-[gamma-33P]-triphosphate.
Mitogen-activated protein kinase 8 (Homo sapiens), sequence (P45983 whole entry): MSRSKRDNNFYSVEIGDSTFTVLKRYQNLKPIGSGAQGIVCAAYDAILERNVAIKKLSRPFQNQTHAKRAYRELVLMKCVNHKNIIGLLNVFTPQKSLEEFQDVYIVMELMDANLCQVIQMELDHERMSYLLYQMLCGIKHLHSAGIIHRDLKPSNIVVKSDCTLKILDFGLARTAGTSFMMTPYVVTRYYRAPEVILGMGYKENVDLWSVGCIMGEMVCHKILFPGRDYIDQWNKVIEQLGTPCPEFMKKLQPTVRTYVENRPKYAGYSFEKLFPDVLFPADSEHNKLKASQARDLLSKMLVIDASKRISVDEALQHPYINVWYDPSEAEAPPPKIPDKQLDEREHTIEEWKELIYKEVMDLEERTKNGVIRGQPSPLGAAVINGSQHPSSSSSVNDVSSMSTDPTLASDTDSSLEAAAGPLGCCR
Series [10] addresses Tyrosine-protein kinase Lck (Homo sapiens) (UniProt P06239). The series is described as follows: In vitro percent inhibition of p56 Lck tyrosine kinase at 10 uM concentration of compound dissolved in 100% DMSO using 5''-[gamma-33P]-triphosphate.
A short description of series [11]: In vitro percent inhibition of Cyclin-dependent kinase 2-cyclin A at 10 uM concentration of compound dissolved in 100% DMSO using 5''-[gamma-33P]-triphosphate.
In series [12] the target is RAF proto-oncogene serine/threonine-protein kinase (Homo sapiens) (UniProt P04049). In words: In vitro percent inhibition of RAF proto-oncogene serine/threonine-protein kinase at 10 uM concentration of compound dissolved in 100% DMSO using 5''-[gamma-33P]-triphosphate.
RAF proto-oncogene serine/threonine-protein kinase (Homo sapiens), sequence (P04049 whole entry): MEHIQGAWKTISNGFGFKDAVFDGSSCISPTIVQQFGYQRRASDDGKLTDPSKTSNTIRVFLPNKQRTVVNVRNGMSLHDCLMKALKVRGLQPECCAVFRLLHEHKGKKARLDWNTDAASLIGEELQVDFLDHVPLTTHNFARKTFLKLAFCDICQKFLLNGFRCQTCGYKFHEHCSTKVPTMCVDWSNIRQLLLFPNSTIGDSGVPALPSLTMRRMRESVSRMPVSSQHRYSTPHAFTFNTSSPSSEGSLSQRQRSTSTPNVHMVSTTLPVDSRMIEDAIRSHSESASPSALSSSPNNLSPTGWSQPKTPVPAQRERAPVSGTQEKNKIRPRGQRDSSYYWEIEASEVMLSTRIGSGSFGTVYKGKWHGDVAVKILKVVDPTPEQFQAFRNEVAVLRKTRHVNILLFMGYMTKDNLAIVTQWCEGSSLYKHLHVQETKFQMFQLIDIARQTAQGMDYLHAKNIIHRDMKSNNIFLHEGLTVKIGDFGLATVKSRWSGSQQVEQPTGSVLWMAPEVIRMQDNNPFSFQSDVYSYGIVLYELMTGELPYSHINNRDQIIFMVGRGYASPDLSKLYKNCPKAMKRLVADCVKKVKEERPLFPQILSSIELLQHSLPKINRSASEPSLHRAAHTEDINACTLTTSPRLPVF
Series [13] deals with T2, Inhibitor of nuclear factor kappa-B kinase subunit beta (Homo sapiens) (UniProt O14920).
T2 sequence (whole entry): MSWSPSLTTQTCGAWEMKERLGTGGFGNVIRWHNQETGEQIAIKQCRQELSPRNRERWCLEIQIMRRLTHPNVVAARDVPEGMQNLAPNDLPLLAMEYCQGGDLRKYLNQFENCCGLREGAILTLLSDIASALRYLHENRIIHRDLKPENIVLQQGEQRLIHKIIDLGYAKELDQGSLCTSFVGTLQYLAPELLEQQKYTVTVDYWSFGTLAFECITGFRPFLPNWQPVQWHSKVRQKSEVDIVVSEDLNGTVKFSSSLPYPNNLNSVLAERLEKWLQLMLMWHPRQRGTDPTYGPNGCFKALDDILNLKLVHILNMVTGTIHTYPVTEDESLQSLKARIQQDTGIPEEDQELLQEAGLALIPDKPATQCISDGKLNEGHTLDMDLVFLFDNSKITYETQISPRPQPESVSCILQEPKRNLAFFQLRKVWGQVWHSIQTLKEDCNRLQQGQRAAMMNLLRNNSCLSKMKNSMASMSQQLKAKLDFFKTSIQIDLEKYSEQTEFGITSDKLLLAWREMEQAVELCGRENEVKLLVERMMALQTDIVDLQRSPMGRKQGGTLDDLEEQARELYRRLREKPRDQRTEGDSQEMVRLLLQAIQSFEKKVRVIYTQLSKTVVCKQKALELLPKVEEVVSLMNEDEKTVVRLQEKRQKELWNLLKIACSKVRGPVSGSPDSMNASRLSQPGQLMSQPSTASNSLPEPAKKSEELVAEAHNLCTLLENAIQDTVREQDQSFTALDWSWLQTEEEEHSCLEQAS
In words: In vitro percent inhibition of I-kappa-B-kinase beta at 10 uM concentration of compound dissolved in 100% DMSO using 5''-[gamma-33P]-triphosphate.

Series [14] has as its target Casein kinase I isoform alpha (Homo sapiens) (UniProt P48729). The series is described as follows: In vitro percent inhibition of Casein kinase 1 alpha at 10 uM concentration of compound dissolved in 100% DMSO using 5''-[gamma-33P]-triphosphate.
Series [15] addresses Mitogen-activated protein kinase 3 (Homo sapiens) (UniProt P27361). In words: In vitro percent inhibition of Mitogen-activated protein kinase 3 at 10 uM concentration of compound dissolved in 100% DMSO using 5''-[gamma-33P]-triphosphate.
Series [16] deals with Mast/stem cell growth factor receptor Kit (Homo sapiens) (UniProt P10721). The series is described as follows: In vitro percent inhibition of v-kit Hardy-Zuckerman 4 feline sarcoma viral oncogene homolog at 10 uM concentration of compound dissolved in 100% DMSO using 5''-[gamma-33P]-triphosphate.
Series [17] addresses Hepatocyte growth factor receptor (Homo sapiens) (UniProt P08581). The series is described as follows: In vitro percent inhibition of Met proto-oncogene tyrosine kinase at 10 uM concentration of compound dissolved in 100% DMSO using 5''-[gamma-33P]-triphosphate.
In series [18] the target is Ribosomal protein S6 kinase (P70S6K) (Homo sapiens) (UniProt Q9UBS0+P23443). In words: In vitro percent inhibition of Ribosomal protein S6 kinase at 10 uM concentration of compound dissolved in 100% DMSO using 5''-[gamma-33P]-triphosphate. Format: protein-complex assay.
Series [19] addresses RAC-alpha serine/threonine-protein kinase (Homo sapiens) (UniProt P31749). The series is described as follows: In vitro percent inhibition of Protein kinase B, alpha at 10 uM concentration of compound dissolved in 100% DMSO using 5''-[gamma-33P]-triphosphate.
Series [20] concerns the target Glycogen synthase kinase-3 beta (Homo sapiens) (UniProt P49841). The series is described as follows: In vitro percent inhibition of Glycogen synthase kinase 3 beta at 10 uM concentration of compound dissolved in 100% DMSO using 5''-[gamma-33P]-triphosphate.

RAC-alpha serine/threonine-protein kinase (Homo sapiens), sequence (P31749 whole entry): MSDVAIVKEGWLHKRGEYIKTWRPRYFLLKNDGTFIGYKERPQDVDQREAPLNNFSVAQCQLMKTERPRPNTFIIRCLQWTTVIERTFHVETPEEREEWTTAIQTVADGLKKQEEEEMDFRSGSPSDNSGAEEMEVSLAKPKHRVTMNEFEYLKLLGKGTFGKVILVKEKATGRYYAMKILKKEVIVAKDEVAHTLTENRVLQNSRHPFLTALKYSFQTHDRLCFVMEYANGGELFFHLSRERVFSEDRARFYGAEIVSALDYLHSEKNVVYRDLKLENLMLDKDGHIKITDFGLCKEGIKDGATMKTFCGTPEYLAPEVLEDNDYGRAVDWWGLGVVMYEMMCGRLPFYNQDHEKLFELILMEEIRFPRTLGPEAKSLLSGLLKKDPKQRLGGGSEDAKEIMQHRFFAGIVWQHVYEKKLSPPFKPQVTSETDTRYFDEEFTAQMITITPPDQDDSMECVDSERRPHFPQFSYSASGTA
Glycogen synthase kinase-3 beta (Homo sapiens), sequence (P49841 whole entry, looked up): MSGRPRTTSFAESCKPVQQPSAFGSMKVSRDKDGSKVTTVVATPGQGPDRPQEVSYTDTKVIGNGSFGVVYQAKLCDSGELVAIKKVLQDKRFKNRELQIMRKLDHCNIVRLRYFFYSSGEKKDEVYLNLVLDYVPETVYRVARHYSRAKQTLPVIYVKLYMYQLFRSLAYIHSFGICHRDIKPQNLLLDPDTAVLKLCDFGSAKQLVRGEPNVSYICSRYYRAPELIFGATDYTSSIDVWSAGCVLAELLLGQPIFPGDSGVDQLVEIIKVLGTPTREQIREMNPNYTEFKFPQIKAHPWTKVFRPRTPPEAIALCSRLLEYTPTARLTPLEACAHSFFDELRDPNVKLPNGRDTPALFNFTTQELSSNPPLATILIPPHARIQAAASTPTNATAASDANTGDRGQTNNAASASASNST
Hepatocyte growth factor receptor (Homo sapiens), sequence (P08581 whole entry): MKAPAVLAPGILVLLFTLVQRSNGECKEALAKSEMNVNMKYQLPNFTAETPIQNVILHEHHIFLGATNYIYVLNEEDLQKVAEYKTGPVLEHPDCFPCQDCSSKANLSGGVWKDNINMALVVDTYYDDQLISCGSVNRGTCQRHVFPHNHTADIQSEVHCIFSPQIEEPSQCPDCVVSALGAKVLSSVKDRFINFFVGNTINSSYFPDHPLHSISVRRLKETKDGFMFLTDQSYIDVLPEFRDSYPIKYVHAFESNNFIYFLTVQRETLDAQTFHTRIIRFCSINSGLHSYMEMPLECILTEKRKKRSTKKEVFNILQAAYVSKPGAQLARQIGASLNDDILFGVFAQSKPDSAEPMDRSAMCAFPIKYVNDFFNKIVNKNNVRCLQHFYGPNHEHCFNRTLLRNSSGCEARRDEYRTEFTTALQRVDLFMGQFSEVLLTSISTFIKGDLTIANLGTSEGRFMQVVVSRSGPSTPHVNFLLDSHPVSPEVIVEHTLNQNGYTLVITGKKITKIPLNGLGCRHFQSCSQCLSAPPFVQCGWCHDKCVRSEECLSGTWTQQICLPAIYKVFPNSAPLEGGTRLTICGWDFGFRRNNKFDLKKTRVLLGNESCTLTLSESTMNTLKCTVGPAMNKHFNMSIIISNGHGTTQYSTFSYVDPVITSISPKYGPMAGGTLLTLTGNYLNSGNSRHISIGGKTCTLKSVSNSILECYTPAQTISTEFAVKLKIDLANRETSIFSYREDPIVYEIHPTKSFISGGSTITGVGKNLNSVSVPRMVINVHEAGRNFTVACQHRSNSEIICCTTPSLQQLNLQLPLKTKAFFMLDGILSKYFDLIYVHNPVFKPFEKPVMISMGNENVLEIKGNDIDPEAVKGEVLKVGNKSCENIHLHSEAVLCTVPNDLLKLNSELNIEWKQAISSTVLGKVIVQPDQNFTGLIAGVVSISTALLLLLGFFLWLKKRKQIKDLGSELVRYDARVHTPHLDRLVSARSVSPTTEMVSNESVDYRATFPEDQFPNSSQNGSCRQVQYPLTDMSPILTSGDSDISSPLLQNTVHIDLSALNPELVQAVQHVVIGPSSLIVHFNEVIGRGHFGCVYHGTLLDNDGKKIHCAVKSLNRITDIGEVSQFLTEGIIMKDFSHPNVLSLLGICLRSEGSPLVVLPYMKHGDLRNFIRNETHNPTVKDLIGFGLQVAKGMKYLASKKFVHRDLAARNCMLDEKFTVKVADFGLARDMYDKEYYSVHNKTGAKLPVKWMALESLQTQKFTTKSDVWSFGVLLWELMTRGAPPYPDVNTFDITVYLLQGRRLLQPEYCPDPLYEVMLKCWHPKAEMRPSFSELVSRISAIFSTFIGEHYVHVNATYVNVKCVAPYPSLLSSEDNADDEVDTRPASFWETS
Proto-oncogene tyrosine-protein kinase Src (Homo sapiens), sequence (P12931 2-536 limits assumed): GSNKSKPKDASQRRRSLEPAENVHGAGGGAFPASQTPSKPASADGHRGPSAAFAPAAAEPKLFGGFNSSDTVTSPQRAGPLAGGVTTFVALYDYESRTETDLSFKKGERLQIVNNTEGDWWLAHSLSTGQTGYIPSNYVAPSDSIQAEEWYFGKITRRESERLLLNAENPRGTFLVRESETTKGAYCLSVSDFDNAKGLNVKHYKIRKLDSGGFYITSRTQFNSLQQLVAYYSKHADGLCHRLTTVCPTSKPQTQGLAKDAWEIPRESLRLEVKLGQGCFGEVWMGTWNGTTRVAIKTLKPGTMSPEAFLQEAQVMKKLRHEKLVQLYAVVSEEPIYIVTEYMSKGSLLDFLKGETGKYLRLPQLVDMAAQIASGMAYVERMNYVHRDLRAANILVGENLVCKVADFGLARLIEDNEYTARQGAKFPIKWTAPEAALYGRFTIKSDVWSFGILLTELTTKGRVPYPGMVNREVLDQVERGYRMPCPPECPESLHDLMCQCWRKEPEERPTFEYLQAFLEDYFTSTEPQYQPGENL
Mitogen-activated protein kinase 3 (Homo sapiens), sequence (P27361 whole entry): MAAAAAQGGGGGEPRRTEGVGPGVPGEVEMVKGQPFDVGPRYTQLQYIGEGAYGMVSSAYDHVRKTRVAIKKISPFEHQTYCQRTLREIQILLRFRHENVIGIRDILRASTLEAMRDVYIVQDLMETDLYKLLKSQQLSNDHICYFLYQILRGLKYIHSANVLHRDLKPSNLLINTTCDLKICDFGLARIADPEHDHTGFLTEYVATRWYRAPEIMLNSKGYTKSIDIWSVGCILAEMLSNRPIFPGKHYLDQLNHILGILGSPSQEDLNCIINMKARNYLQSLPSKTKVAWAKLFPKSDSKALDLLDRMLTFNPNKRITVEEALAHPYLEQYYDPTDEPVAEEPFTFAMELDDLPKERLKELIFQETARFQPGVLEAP
Casein kinase I isoform alpha (Homo sapiens), sequence (P48729 2-337 limits assumed): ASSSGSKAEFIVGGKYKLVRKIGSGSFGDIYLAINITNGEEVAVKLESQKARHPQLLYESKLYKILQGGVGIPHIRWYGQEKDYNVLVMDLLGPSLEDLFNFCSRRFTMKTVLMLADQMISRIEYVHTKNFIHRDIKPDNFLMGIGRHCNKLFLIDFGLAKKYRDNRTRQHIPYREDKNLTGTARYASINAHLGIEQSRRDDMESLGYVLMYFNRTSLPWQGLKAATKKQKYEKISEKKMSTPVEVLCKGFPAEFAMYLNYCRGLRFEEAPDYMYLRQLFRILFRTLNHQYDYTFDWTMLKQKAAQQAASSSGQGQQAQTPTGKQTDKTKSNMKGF

Regarding `c1csc(-c2nc3cc4c(cc3nc2-c2cccs2)OCCO4)c1`, the inhibition in series [1] turned out to be 19%; in series [2], 61%; in [3], 11%; in series [4], 84%; in series [5], 41%; in [6], 48%. In addition, the inhibition in [8] was 34%; in series [9] it was 24%; in series [10], 53%; in [11], 1%; in series [12] it was 4%; in series [13] it was 38%. Also, the inhibition in series [14] came out at 8%; in series [15], 31%; in [16], 46%; in [17], 42%. In [7], this compound had a logP of 5.
`COc1cc2nc(-c3cccs3)c(-c3cccs3)nc2cc1OC`: the inhibition in series [1] was 15%; in [2], 7%; in [3], -2%; in series [4] it was 10%; in [5], 2%; in [6] it was -7%. Further, the inhibition was 10% in [8]; 9% in [10]; -5% in series [11]; 11% in series [12]; 10% in [13]; -1% in series [14]. The inhibition in series [15] was 10%; in series [16], -6%; in series [18], -9%; in series [19] it was -6%; in [17] it was -3%. In series [7], this compound displayed a logP of 4.
As for `COC(=O)Cc1csc(-c2nc3cc4ccccc4cc3nc2-c2cc(CC(=O)OC)cs2)c1`, the inhibition in [1] is 13%; in series [2], 9%; in series [3], -10%; in series [4] it was 8%; in series [5], 4%; in [8], 11%. Besides, the inhibition was -10% in series [9]; 4% in series [10]; -4% in [11]; 17% in series [12]; 14% in series [13]; 2% in series [20]. In addition, the inhibition was 3% in series [14]; 11% in [15]; 1% in series [16]; -5% in series [18]; 1% in [19]; -2% in series [17]. The compound also came in with a logP in [7] of 5.
Regarding `O=C(O)c1ccc2cc3nc(-c4cccs4)c(-c4cccs4)nc3cc2c1`, the inhibition in series [1] is 3%; in series [2], 68%; in series [3], 11%; in series [4] it was 83%; in series [5], 15%; in [6], 42%. Moreover, the inhibition is 40% in series [8]; 20% in series [9]; 47% in series [10]; 6% in [12]; 42% in [13]; 4% in series [20]. Also, the inhibition in [14] was 10%; in [15] it was 18%; in series [16], 56%; in series [18], 5%; in series [19], -10%; in [17], 49%. In series [7], this compound displayed a logP of 5.4.
Consider `COc1cc2nc3nc(-c4cccs4)c(-c4cccs4)nc3nc2cc1OC`, for which the inhibition in series [1] is 48%; in series [2], 5%; in series [3] it was -1%; in series [4], 9%; in [5], -1%; in series [6] it was -7%. Moreover, the inhibition is 20% in series [8]; -7% in series [10]; 27% in [11]; 8% in series [12]; 10% in [13]; 4% in series [20]. Also, the inhibition was 2% in series [14]; 20% in series [15]; -4% in series [16]; -2% in [18]; -4% in series [19]; 12% in series [17]. Also, the logP in series [7] was determined as 4.79.
Consider `c1csc(-c2nc3cc4ccccc4cc3nc2-c2cccs2)c1`, for which the inhibition turned out to be 6% in series [1]; 15% in series [2]; 4% in series [3]; 20% in [4]; 19% in [5]; 55% in series [6]. Also, the inhibition in series [8] was 6%; in series [9] it was 6%; in series [11] it was 3%; in series [12], 16%; in series [13], 6%; in series [20] it was 6%. In addition, the inhibition in [14] worked out at 7%; in series [15], 11%; in series [16] it was 8%; in series [18], 8%; in series [19] it was 12%; in series [17], 43%. In series [7], this compound showed a logP of 5.98.

The inhibition is the drop in the measured response relative to a control, in per cent. For orientation: logP means a log measure of how a compound divides between an organic and an aqueous phase. High values mean a more lipophilic compound, low ones a more hydrophilic compound.
